According to patent US20220056123A1, “USE OF IL-1BETA BINDING ANTIBODIES” (NOVARTIS AG, priority 2018, published 2022):
Read-outs that look alike come from different tables or passages of the source.

What was measured:
[1] = tested on: CD34+ blood vessels in trabecular bone; experiment: Bone microvasculature after suppression of IL-1β signalling; type: in vivo, BALB/c nude mice and C57BL/6 mice
Method: FIG. 7. IL-1β in the bone microenvironment stimulates expansion of the bone metastatic niche. Effects of adding 40 pg/ml or 5 ng/ml recombinant IL-1β to MDA-MB-231 or T47D breast cancer cells is shown in (a) and effects on adding 20 pg/ml, 40 pg/ml or 5 ng/ml IL-1B on proliferation of HS5, bone marrow, or OB1, osteoblasts, are shown in b) and c) respectively. (d) IL-1 driven alterations to the bone vasculature was measured following CD34 staining in the trabecular region of the tibiae from 10-12-week old female IL-1R1 knockout mice. […] Data are shown as mean+/−SEM, *=P<0.01, **=P<0.001, ***=P<0.0001.
FIG. 8. Suppression of IL-1β signalling affects bone integrity and vasculature. […] Data shown are mean+/−SEM, *=P<0.01, **=P<0.001, ***=P<0.0001 compared with control.
To model human breast cancer metastasis to human bone implants two human bone discs were implanted subcutaneously into 10-week old female NOD SCID mice (n=10/group) under isofluorane anaesthetic. Mice received an injection of 0.003 mg vetergesic and Septrin was added to the drinking water for 1 week following bone implantation. Mice were left for 4 weeks before injecting 1×10^5 MDA-MB-231 Luc2-TdTomato, MCF7 Luc2 or T47D Luc2 cells in 20% Martigel/79% PBS/1% toluene blue into the two hind mammary fat pads. Primary tumor growth and development of metastases was monitored weekly using an IVIS […] system (Caliper Life Sciences) following sub-cutaneous injection of 30 mg/ml D-luciferin (Invitrogen). On termination of experiments mammary tumors, circulating tumor cells, serum and bone metastases were resected. RNA was processed for downstream analysis by real time PCR, and cell lysates were taken for protein analysis and whole tissue for histology as previously described (Nutter et al., 2014; Ottewell et al., 2014a). […] Tumor cells, serum, and bone were subsequently resected for downstream analysis. Bone metastases were investigated following injection of 5×10^5 MDA-MB-231 GFP (control), MDA-MB-231-IV, MDA-MB-231-IL-1B-positive or MDA-MB-231-IL-1R1-positive cells into the lateral tail vein of 6 to 8-week old female BALB/c nude mice (n=12/group). Tumor growth in bones and lungs was monitored weekly by GFP imaging in live animals. Mice were culled 28 days after tumor cell injection at which timepoint hind limbs, lungs and serum were resected and processed for microcomputed tomography imaging (pCT), histology and ELISA analysis of bone turnover markers and circulating cytokines as described (Holen et al., 2016).

MDA-MB231 = experiment: TNBC MDA-MB231 xenograft in humanized BLT mice; type: in vivo, humanized mouse; conditions: single agent arm, compared to isotype control
Method: • I. Tumor models: The role of IL-1β in tumor immunity and efficacy of IL-1β blocking antibodies were tested in the following preclinical models: • Xenograft tumors in humanized mouse models: NSCLC (H358), TNBC (MDA-MB231) and CRC (SW480) • Syngeneic tumor models: TNBC (4T1) and lung (LL-2) cancer • II. […] Combination treatments include chemotherapeutic agent, docetaxel (6.25 mg/Kg QW IV), PD-1 pathway inhibitors (anti-human PD-1, pembrolizumab 10 mg/Kg Q5D IP or anti-mouse PD-1, clone 1D2 10 mg/Kg QW IP) and anti-mouse VEGF blocking antibody (clone 4G3, 5 mg/Kg Q5D) were used in combination with anti-IL-1β antibody. Appropriate isotype controls were used. In all experiments, dosing was initiated after tumor implantation. • III. Experimental readouts: activity of therapeutic agents in preclinical models were assessed by the following: • Tumor volume was determined by measurement with calipers throughout the course of the study. Tumor weights in milligrams were determined at end of study • Immunohistochemistry analysis was performed on FFPE NSCLC (H358) xenograft tissue • Changes in immune populations in peripheral blood in CRC (SW480) xenograft humanized model and tumors in syngeneic models (4T1 and LL-2) were assessed by flow cytometry using markers for T cell, myeloid populations

[2] = CANTOS immunogenicity, bridging ECLIA for anti-drug antibodies; type: in vivo, human
Method: During the CANTOS trial, blood samples for immunogenicity assessments were collected at baseline Month 12, 24 and end of study visit. Immunogenicity was analyzed using a bridging immunogenicity electrochemiluminescence immunoassay (ECLIA). Samples were pre-treated with acetic acid and neutralized in buffer containing labeled drug (biotinylated ACZ885 and sulfo-TAG (Ruthenium) labeled ACZ885). Anti-canakinumab antibodies (anti-drug antibodies) were captured by a combination of biotinylated and sulfo-TAG labeled forms of ACZ885. Complex formation was subsequently detected by electrochemiluminescence by capturing complexes on Mesoscale Discovery Streptavidin (MSD) plates.

mouse IL-1β = mouse IL-1β (Mus musculus, UniProt P10749); experiment: Cross-reactivity with mouse IL-1β; type: binding
[3] = tested on: patients with atherosclerosis who had had a myocardial infarction; conditions: compared with placebo, median follow-up 3.7 years, cited from earlier work

Chain of mouse IL-1β (P10749 118-269): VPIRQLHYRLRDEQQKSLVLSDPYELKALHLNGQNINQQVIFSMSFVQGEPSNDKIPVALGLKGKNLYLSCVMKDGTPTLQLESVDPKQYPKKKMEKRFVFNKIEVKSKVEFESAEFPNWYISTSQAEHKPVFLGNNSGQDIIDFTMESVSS

## canakinumab: high-affinity, fully human monoclonal antibody of the IgG1/k to interleukin-1β
[1]; IL-1Ra 1 mg/kg daily (BALB/c nude), canakinumab single dose (C57BL/6), p<0.01
  average length of CD34+ blood vessels in trabecular bone: reduced the average length
[1]; compared with control, p<0.01
  endothelin 1 concentration (ELISA): reduced concentrations
[1]; compared with control, p<0.01 IL-1R antagonist, p<0.001 canakinumab
  VEGF concentration (ELISA): reduced concentrations
MDA-MB231
  animals with slower tumor growth: 100 % of animals
[2]; canakinumab 150 mg group
  patients with treatment-emergent anti-canakinumab antibodies: 0.4%
[2]; canakinumab 300 mg group
  patients with treatment-emergent anti-canakinumab antibodies: 0.3%
[2]; in vivo
  association of anti-drug antibodies with AEs or hsCRP response: not associated with immunogenicity related AEs or altered hsCRP response
Mouse IL-1β
  cross-reactivity with mouse IL-1β: does not cross-react to murine IL-1β
Mouse IL-1β; listed as Canakinumab
  cross-reactivity with mouse IL-1β: does not cross-react with mouse IL-1β
[3]; dose-dependent (50, 150, 300 mg sc every 3 months)
  reductions in concentrations of hsCRP: 26-41%
[3]; dose-dependent
  reductions in concentrations of interleukin 6: 25-43%
